Here are results for 8 compounds from PubChem BioAssay (NCI).

The structures appear in SMILES notation.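 How tested: cells in 96-well plates exposed to compound for 48 hours at five concentrations. At the GI50, growth is halved. TGI is the concentration that stops growth completely.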 Bounds are passed on as bounds.

Among the test systems are MCF7 breast; MOLT-4 leukemia; TK-10 renal; OVCAR-8 ovarian; HCT-15 colon; SNB-75 CNS; UACC-62 melanoma; SF-539 CNS; SK-MEL-2 melanoma; RPMI-8226 leukemia.
Common to all, as to experiment: growth of human tumour cells (NCI), 48 h

Regarding `COc1cc(N)c(Cl)cc1C(=O)N[C@@H]1CCN(CCCOc2ccc(F)cc2)C[C@@H]1OC`, the GI50 with MCF7 breast was 57 µM; with MOLT-4 leukemia, 29.8 µM; in the test on TK-10 renal it was more than 100 µM; with OVCAR-8 ovarian it was more than 100 µM; in the test with HCT-15 colon, 23.6 µM; in the test with SNB-75 CNS, more than 100 µM. The GI50 is 67.6 µM in the test with UACC-62 melanoma, 66.2 µM in the test on SF-539 CNS and more than 100 µM in the test on SK-MEL-2 melanoma. The TGI with MCF7 breast, in the test with MOLT-4 leukemia, in the test on TK-10 renal, with OVCAR-8 ovarian, with HCT-15 colon and in the test on SNB-75 CNS was more than 100 µM each time. Besides, the TGI with UACC-62 melanoma, in the test on SF-539 CNS and in the test on SK-MEL-2 melanoma was more than 100 µM in each case.

On to `COc1ccc(-c2cn3ccnc3c(-c3ccc(Cl)cc3)n2)cc1`, for which the GI50 with MCF7 breast was 5.56 µM; with MOLT-4 leukemia, 4.9 µM; in the test on OVCAR-8 ovarian, 15 µM; with RPMI-8226 leukemia, 4.58 µM; in the test on HCT-15 colon, 3.16 µM; in the test with SNB-75 CNS, 6.85 µM. Also, the GI50 with UACC-62 melanoma is 19.4 µM; with SF-539 CNS, 8.97 µM; with SK-MEL-2 melanoma, 35.2 µM. The TGI with MCF7 breast is more than 100 µM; in the test with MOLT-4 leukemia it was more than 100 µM; in the test on OVCAR-8 ovarian, more than 100 µM; in the test with RPMI-8226 leukemia, 91.3 µM; with HCT-15 colon, more than 100 µM; with SNB-75 CNS it was more than 100 µM. The TGI was more than 100 µM in the test on UACC-62 melanoma, 58 µM with SF-539 CNS and more than 100 µM in the test with SK-MEL-2 melanoma.

In the case of `CC(C)(O)c1cc(Nc2cc(Oc3cn(C4CC4)nc3C3CCOCC3)ccn2)ccn1`, the GI50 was 35.3 µM in the test with MCF7 breast; 91.7 µM in the test with MOLT-4 leukemia; 69.8 µM with TK-10 renal; more than 100 µM in the test on OVCAR-8 ovarian; 33.7 µM in the test on RPMI-8226 leukemia; more than 100 µM in the test on HCT-15 colon. Besides, the GI50 in the test on SNB-75 CNS was 22 µM; in the test on SF-539 CNS, more than 100 µM; in the test on SK-MEL-2 melanoma, more than 100 µM. For the same compound, the TGI in the test with MCF7 breast, with MOLT-4 leukemia, in the test on TK-10 renal, in the test on OVCAR-8 ovarian, with RPMI-8226 leukemia and with HCT-15 colon was more than 100 µM in each case. Further, the TGI with SNB-75 CNS, in the test with SF-539 CNS and in the test on SK-MEL-2 melanoma was more than 100 µM throughout.

Regarding `C[C@]12CCC3c4ccc(O)cc4CCC3C1CC[C@@H]2NC(=O)/C=C/c1ccc(O)c(O)c1` (some centres undefined), the GI50 was 16.1 µM with MCF7 breast; 3.34 µM in the test on MOLT-4 leukemia; 13.8 µM with TK-10 renal; 10.4 µM in the test on OVCAR-8 ovarian; 4.39 µM in the test on RPMI-8226 leukemia; 4.89 µM with HCT-15 colon. The GI50 in the test with SNB-75 CNS was 2.66 µM; in the test with UACC-62 melanoma, 11.5 µM; in the test with SK-MEL-2 melanoma it was 20.6 µM. Further, the TGI with MCF7 breast came out at 49.1 µM; in the test on MOLT-4 leukemia it was 24 µM; in the test on TK-10 renal, 50.6 µM; in the test on OVCAR-8 ovarian it was 29.1 µM; in the test with RPMI-8226 leukemia it was 24.8 µM; in the test with HCT-15 colon, 19 µM. Besides, the figures for the TGI in the test with SNB-75 CNS, in the test with UACC-62 melanoma and in the test on SK-MEL-2 melanoma were 9.36 µM, 24.4 µM and 51.3 µM, respectively.

In the case of `CCOc1ccc2cc(-c3nn(CC4CCN(C)CC4)c4ncnc(N)c34)ccc2c1`, the GI50 is 13.4 µM in the test on MCF7 breast; 4.84 µM with MOLT-4 leukemia; 14.4 µM in the test on TK-10 renal; 10.3 µM with RPMI-8226 leukemia; 12.3 µM in the test on HCT-15 colon; 1.56 µM in the test on SNB-75 CNS. In addition, the GI50 in the test on UACC-62 melanoma was 16.3 µM; in the test with SF-539 CNS, 14.1 µM; in the test with SK-MEL-2 melanoma, 17 µM. For the same compound, the TGI is 37.1 µM with MCF7 breast; 24.6 µM in the test on MOLT-4 leukemia; 34.3 µM in the test on TK-10 renal; 30.5 µM in the test with RPMI-8226 leukemia; 30.9 µM in the test with HCT-15 colon; 15.9 µM in the test on SNB-75 CNS. Further, the TGI in the test on UACC-62 melanoma came out at 32.5 µM; in the test on SF-539 CNS, 27.2 µM; in the test with SK-MEL-2 melanoma it was 32.4 µM.

Turning to `CSC(=S)NCc1cn(C)c2ccccc12`, the GI50 in the test with MCF7 breast is 24.3 µM; in the test with TK-10 renal, 28.7 µM; in the test on OVCAR-8 ovarian it was 24.2 µM; in the test on RPMI-8226 leukemia, 30.7 µM; in the test with HCT-15 colon, 26.8 µM; in the test with SNB-75 CNS, 51.4 µM. Also, the GI50 in the test on UACC-62 melanoma is 20.1 µM; in the test on SF-539 CNS, 25 µM; in the test on SK-MEL-2 melanoma it was 34.2 µM. In addition, the TGI is 90.9 µM with MCF7 breast; more than 100 µM with TK-10 renal; 90.6 µM with OVCAR-8 ovarian; more than 100 µM in the test with RPMI-8226 leukemia; more than 100 µM with HCT-15 colon; more than 100 µM in the test with SNB-75 CNS. The TGI was 42.7 µM with UACC-62 melanoma, 62.3 µM in the test on SF-539 CNS and more than 100 µM with SK-MEL-2 melanoma.

Consider `NC(=S)c1cccc(C2Nc3ccccc3O2)c1` (centres undefined), for which the TGI in the test on MCF7 breast, with MOLT-4 leukemia, with TK-10 renal, in the test with OVCAR-8 ovarian, in the test on HCT-15 colon and in the test on SNB-75 CNS was more than 100 µM in each case. In addition, the TGI in the test on UACC-62 melanoma was 96.2 µM; with SF-539 CNS, more than 100 µM; with SK-MEL-2 melanoma, more than 100 µM.

Regarding `O=C1c2ccccc2-c2c1c1ccccc1c(=O)n2CCNCCNCCNCCNCCn1c2c(c3ccccc3c1=O)C(=O)c1ccccc1-2`, the GI50 was 0.0501 µM in the test with MCF7 breast; less than 0.0191 µM in the test with MOLT-4 leukemia; 0.177 µM in the test with TK-10 renal; 0.172 µM in the test with OVCAR-8 ovarian; 0.0178 µM in the test on RPMI-8226 leukemia; 0.568 µM with HCT-15 colon. Besides, the GI50 is 0.447 µM in the test on UACC-62 melanoma, 0.0446 µM in the test on SF-539 CNS and 0.692 µM in the test with SK-MEL-2 melanoma. Also, the TGI with MCF7 breast was 1.71 µM; in the test on TK-10 renal it was 1.35 µM; in the test on OVCAR-8 ovarian it was 2.69 µM; in the test on RPMI-8226 leukemia, 0.187 µM; with HCT-15 colon, 2.56 µM; in the test with UACC-62 melanoma it was 1.71 µM. For the same compound, the TGI in the test on SF-539 CNS was found to be 0.314 µM; in the test on SK-MEL-2 melanoma, 2.4 µM.
